# Measurements published in US11718610B2, “Compounds containing benzosultam” (MEDSHINE DISCOVERY INC., priority 2020, dated 2023).
# Where two headings read alike, the source gives them in different places.
# What was measured:
# [1] = test system: human lung cancer Calu-6 cell subcutaneous xenograft tumor; assay: In vivo pharmacodynamic experiment, BALB/c nude mouse model of subcutaneous xenograft tumors of human lung cancer Calu-6 cells; conditions: 50 mg/kg oral (PO) once a day (QD), Calu-6 xenograft in BALB/c nude mice, vs solvent control; P<0.01
# Method: Experimental Embodiment 7: In Vivo Pharmacodynamic Experiment of the BALB/c Nude Mouse Model of Subcutaneous Xenograft Tumors of Human Lung Cancer Calu-6 Cells
# Age of arrival: 6 to 8 weeks old
# Cells: Calu-6 cells of human lung cancer were cultured in vitro, and 0.2 Units/mL bovine insulin, 10% fetal bovine serum were added to EMEM culture medium in a 37° C. and 5% CO2 incubator for culture. Conventional digestion with trypsin-EDTA was performed twice a week for passage. When the cell saturation was 80%-90% and the number of the cells reached the requirement, and the cells were collected, counted, and seeded.
# Cell inoculation: 0.2 mL of Calu-6 cell (mixed in a ratio of 1:1 with matrix gel) was subcutaneously inoculated on the right back of each mouse, and group administration was started when the average tumor volume reached […],
# Tumor diameters were measured with vernier calipers twice a week. The calculation formula of tumor volume was: V=0.5a×b^2, and a and b represent the long and short diameters of the tumor, respectively.
# The tumor inhibition efficacy of the compounds was evaluated by TGI (%) or relative tumor proliferation rate T/C (%). Relative tumor proliferation rate T/C (%)=TRTV/CRTV×100% (TRTV: RTV in the treatment group; CRTV: RTV in the negative control group). The relative tumor volume (RTV) was calculated according to the results of tumor measurement, and the formula was RTV=Vt/V0, wherein V0 was the tumor volume measured at the time of group administration (i.e., D0), and Vt was the tumor volume measured at a certain measurement, and TRTV and CRTV were taken on the same day.
# TGI (%), reflecting the tumor growth inhibition rate. TGI (%)=[1−(average tumor volume at the end of administration in a treatment group−average tumor volume at the beginning of administration in this treatment group)/(average tumor volume at the end of treatment in a solvent control group−average tumor volume at the beginning of treatment in this solvent control group)]×100%.
# Statistical analysis was based on the data of RTV at the end of the experiment, and SPSS software was used for analysis. One-way ANOVA was used for comparison between two groups, and the variance was uneven (there was significant difference in F value), and Games-Howell method was used to test, p<0.05 was considered a significant difference.
# A375 cells = assay: A375 (BRAF V600E) antiproliferative activity experiment (CellTiter-glo); assay type: cell-based; conditions: Homo sapiens, A-375, 120 h, cultured 5 days
# Method: Experimental Embodiment 3: A375 (BRAF^V600E) Antiproliferative Activity Experiment
# Cell line A375 (purchased from Procell). DMEM culture medium, penicillin/streptomycin antibiotics were purchased from Vicente, and fetal bovine serum was purchased from Biosera. CellTiter-glo (cell viability chemiluminescence detection reagent) reagent was purchased from Promega.
# A375 cells were seeded in a white 96 well plate with […] of cell suspension per well containing 2000 of A375 cells. The cell plate was placed in a carbon dioxide incubator and cultured overnight. The compound to be tested was diluted 3-fold to the 9th concentration with a pipette, that is, diluted from 6 mmol to 0.91 μmol, and a double-duplicate experiment was set-up, 78 μmol of culture medium was added to the middle plate, then 2 μmol of gradient dilution compound per well was transferred to the middle plate according to the corresponding position, and 20 μmol per well was mixed and transferred to the cell plate. The concentration of the compound transferred to the cell plate ranged from 30 μmol to 4.57 nmol. The cell plate was placed in a carbon dioxide incubator and cultured for 5 days. Another cell plate was prepared, and the signal value was read as the maximum value (max value in the following equation) on the day of administration to participate in data analysis, 25 μmol of cell viability chemiluminescence detection reagent was added to each well of the cell plate and incubated at room temperature for 10 minutes to stabilize the luminescence signal. A multi-marker analyzer reading was used. After the incubation of the cell plate added with the compound was finished, 25 μmol of cell viability chemiluminescence detection reagent was added to each well of the cell plate and incubated at room temperature for 10 minutes to stabilize the luminescence signal. A multi-marker analyzer reading was used.
# The equation (Sample−Min)/(Max−Min)*100% was used to convert the original data into inhibition rate, and the IC50 value could be obtained by curve fitting with four parameters (obtained by “log (inhibitor) vs. response—variable slope” mode in GraphPad Prism).
# [2] = Pharmacokinetics of single intravenous and oral administration in mice; assay type: in vivo; conditions: for Vd / clearance / half-life: single intravenous administration, 0.5 mg/kg/day; for Vd: read-out: Apparent distribution volume Vdss; for clearance: read-out: Clearance rate Cl; for half-life: read-out: Half-life (T1/2) (converted); for Tmax / Cmax: single oral administration, 50 mg/kg/day; for Tmax: read-out: Peak time Tmax; for Cmax: read-out: Maximum plasma drug concentration Cmax
# Method: (§1) Experimental Embodiment 6: Pharmacokinetics Study of Single Intravenous and Oral Administration in Mice and Dogs
# (§2) This experiment was aimed to study the pharmacokinetics of the test compound in mice and dogs in vivo after a single oral administration of the compound.
# (§3) After intravenous or oral administration, blood samples were collected and the actual blood collection time was recorded. After the blood sample was collected, the sample was immediately transferred to a labeled centrifuge tube containing K2-EDTA, and then the plasma was taken after centrifugation. The plasma was transferred to a precooled centrifuge tube, quickly frozen in dry ice, and stored in an ultra-low temperature refrigerator at −70±10° C. until LC-MS/MS analysis.
# (§4) Pharmacokinetic software was used to process the plasma drug concentration data of the compound with […] model. The peak concentration (Cmax) and peak time (Tmax), as well as the end time of quantification, were obtained directly from the plasma drug concentration-time graph. The following pharmacokinetic parameters were calculated by logarithmic linear trapezoidal method: half-life (T1/2), apparent distribution volume (Vdss) and clearance rate (Cl), and the area under the time-plasma concentration curve from 0 to the end time point (AUC0-last).
# [3] = Pharmacokinetics of single intravenous and oral administration in dogs; assay type: in vivo; conditions: dog
# Method: as §1, §2, §3, §4
SMILES,TGI (tumor growth inhibition rate) [1],IC50 (A375 cells),"Vd ([2]; mouse, plasma)","clearance ([2]; mouse, plasma)","half-life ([2]; mouse, plasma)","Tmax ([2]; mouse, plasma)",Cmax [2],"Apparent distribution volume ([3]; intravenous injection, 2 mg/kg/day)","Maximum plasma drug concentration ([3]; oral, 10 mg/kg/day)","Peak time ([3]; oral, 10 mg/kg/day)","clearance ([3]; plasma, intravenous injection, 2 mg/kg/day, read-out: Clearance rate)","half-life ([3]; plasma, intravenous injection, 2 mg/kg/day, read-out: Half-life (T1/2) (converted))","bioavailability ([3]; plasma, oral 10 mg/kg/day vs intravenous 2 mg/kg/day)","Cmax ([2]; mouse, plasma, po)"
COc1cc(F)cc([C@@H](CO)NC(=O)[C@@H](C)N2Cc3ccc(-c4nc(NC5CCOCC5)ncc4Cl)cc3S2(=O)=O)c1 [Compound 1],107%,15 nM,0.4 L/kg,10.3 mL/min/kg,1.16 h,1 h,73.4 µM,,,,,,,
COc1cc(F)cc([C@@H](CO)NC(=O)[C@@H](C)N2Cc3ccc(-c4nc(NC5CCOCC5)ncc4Br)cc3S2(=O)=O)c1 [Compound 3],110%,13 nM,0.656 L/kg,19 mL/min/kg,2.18 h,1 h,,0.112 L/kg,26700 nmol/L,3.00 h,1.34 mL/min/kg,4.3 h,59.8%,156 µM
[2H]C1([2H])CC(Nc2ncc(Cl)c(-c3ccc4c(c3)S(=O)(=O)N([C@H](C)C(=O)N[C@H](CO)c3cc(F)cc(OC)c3)C4)n2)CC([2H])([2H])O1 [Compound 9],108%,14 nM,0.297 L/kg,7.03 mL/min/kg,1.26 h,1.5 h,,,,,,,,124 µM
COc1cc(F)cc([C@@H](CO)NC(=O)[C@@H](C)N2Cc3ccc(-c4nc(N[C@H]5CCOC[C@H]5F)ncc4Cl)cc3S2(=O)=O)c1 [Compound 11],109%,16 nM,0.422 L/kg,13.8 mL/min/kg,1.17 h,0.75 h,,,,,,,,157 µM
